From patent US9249098B2 (priority 2012, dated 2016)
pIC50: −log10 of the molar value. Like-named read-outs stand apart in the source and are kept apart here.

How the values were obtained:
[1] = biological target: T1, acetylcholinesterase (AChE) (Electrophorus electricus, UniProt O42275); assay: biochemical; settings: room temperature, pH 8, acetylthiocholine iodide substrate; read-out: IC50, inhibition of AChE enzyme activity
T1 construct: purchased Sigma C2888
Experimental: Enzymatic assay. […] The purified/synthesized compounds or compound mixtures were tested. Assay kit was from Invitrogen. AChE enzyme was from Sigma or prepared from human erythrocyte. Acetylcholine and other reagents and buffers were from Sigma. The assay solution consisted of 0.1 M phosphate buffer pH 8, 0.5 mM 5,5′-dithiobis (2-nitrobenzoic acid) (DTNB, Ellman's reagent), 0.01 unit acetylcholinesterase (Sigma Cat. No. C2888), and 0.5 mM acetylthiocholine iodide (ATCI) as the substrate. Test compounds were added to the assay solution and pre-incubated with the enzyme for 5 min at room temperature before addition of the substrate. […] Duplicate sampling was made for each sample. Test compound inhibition to enzyme activity was calculated relative to the positive control without presence of test compound. Negative controls were samples without enzyme.
Experimental procedures were described in the embodiments of this invention.

in vivo [2] = settings: male, Sprague-Dawley, plasma, rat
Experimental: Pharmacokinetics (PK) measurement. […] A total of 6 male experimental SD rats, approximately 8 weeks of age (180-250 g body weight) were used. For intravenous bolus injection (IV), the animals were placed in a polycarbonate restraint device and dosed via the tail vein. For oral dose (PO), the animals were dosed via oral gavage. […] The plasma samples were extracted by protein precipitation using 4 volume of CH3CN containing fixed concentration of internal standard compound (IS). The concentrations of analyte in plasma were determined using a high performance liquid chromatography/mass spectrometry (HPLC/MS/MS) method (Shimadzu LC-10ADVP and a Leap autosampler, Thermo Hypersil C18, 50 mm×2.1 mm, Mobile phase A: 0.1% formic acid; B: MeCN, Elution rate: 500 μL/min, Column temperature: 25° C., Injection volume: 10 μL, reverse phase elution from 10% organic to 90% organic in 5 min, Applied Biosystems API3000 triple-quadrupole instrument with a Turbo Ions Spray interface). The data acquisition and data processing were done using Analyst 1.4 software.
Experimental animal used were male Sprague-Dawley rats from Shanghai Sino-British SIPPR/BK Lab Animal Ltd, approximately 8 weeks of age (180-250 g body weight).

[3] = Acute toxicity in mice (LD50); settings: both sexes, mouse, in vivo; CD-1 mice, dosed orally (PO), 7-day acute toxicity
Experimental: Animal toxicological tests. 7-day acute toxicity evaluation was done for selected compounds of this invention on mice and rats. Male and female CD-1 mice (25-30 grams) or SD rats (150-240 grams) were used. The animals were acclimated for 1 week prior to the experiment. The test compounds were dissolved in saline and were dosed orally (PO). Five groups (3 doses plus 1 vehicle and 1 naïve) and 10 mice per group (half male and half female) were used for each compound. All animals were fasted overnight before study. After dosing, animals were placed individually in soft-bedding cages without cage covers. Animal behavioral changes were continuously monitored for 4 hours including autonomic abnormalities (salivation, lacrimation, piloerection, yawning, palpebral closures), neuromuscular abnormalities (posture, gait, fasciculation, convulsions), stereotypical behaviors (sleep, alert, hyper/hypo-activity, slow patterned, fast patterned, restricted, dyskinetic-reactive signs etc.) and lethality. Observations for general health, mortality and moribundity were conducted twice daily after 24 hours. All animals surviving the 7-day observation period were sacrificed by carbon dioxide asphyxiation. Gross necropsies were performed on all animals sacrificed including examinations of main organs and tissue (lung, liver, kidney, heart, intestine, brain).
Acute toxicity for selected compounds of this invention was measured in mice according to the procedure illustrated in the embodiments. Male and female CD-1 mice (n=2-5/gender/compound dose, 25-32 grams) were from Shanghai Sino-British SIPPR/BK Lab Animal Ltd. Table 4 lists toxicology study observations for selected compounds.

in vivo [4] = settings: male, Sprague-Dawley, plasma, rat, read-out: T½ (terminal half life) (converted)
[5] = IV (intravenous), read-out: F (bioavailability)
[6] = PO (oral), read-out: F (oral bioavailability)
[7] = SC (subcutaneous), read-out: F (bioavailability)

T1 sequence (O42275 24-633): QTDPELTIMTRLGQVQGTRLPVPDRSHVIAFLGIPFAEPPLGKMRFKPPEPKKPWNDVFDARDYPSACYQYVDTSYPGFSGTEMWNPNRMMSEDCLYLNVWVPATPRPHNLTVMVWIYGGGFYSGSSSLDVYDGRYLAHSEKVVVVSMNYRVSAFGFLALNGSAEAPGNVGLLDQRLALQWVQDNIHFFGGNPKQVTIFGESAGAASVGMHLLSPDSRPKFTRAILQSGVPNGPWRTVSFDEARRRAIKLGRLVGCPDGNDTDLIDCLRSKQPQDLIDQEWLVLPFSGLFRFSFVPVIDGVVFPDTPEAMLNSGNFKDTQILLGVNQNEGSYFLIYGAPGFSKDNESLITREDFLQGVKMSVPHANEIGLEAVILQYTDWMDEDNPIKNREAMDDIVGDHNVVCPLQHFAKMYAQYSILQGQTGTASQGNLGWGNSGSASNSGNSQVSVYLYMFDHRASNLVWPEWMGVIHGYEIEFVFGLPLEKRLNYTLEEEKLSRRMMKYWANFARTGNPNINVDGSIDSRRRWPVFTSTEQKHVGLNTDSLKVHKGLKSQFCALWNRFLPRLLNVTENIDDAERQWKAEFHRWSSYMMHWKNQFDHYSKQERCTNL

SMILES | pIC50 [1] | bioavailability (in vivo [2]; [5]) | bioavailability (in vivo [2]; [6]) | bioavailability (in vivo [2]; [7]) | LD50 at 7 day [3] | half-life (in vivo [4]; IV (intravenous)) | half-life (in vivo [4]; PO (oral)) | half-life (in vivo [4]; SC (subcutaneous))
COc1cc2c(cc1OC)C(=O)C(F)(CC1(F)CCN(Cc3ccccc3)CC1)C2 (stereo not drawn) [IV-8, 2-((1-benzyl-4-fluoropiperidin-4-yl)methyl)-2-fluoro-5,6-dimethoxy-2,3-dihydro-1H-inden-1-one] | 8.04 | 100% | 37.2% | 70.5% | > 45 mg/kg | 8.5 h | 12.7 h | 6.8 h
COc1cc2c(cc1OC)C(=O)C(F)(CC1(F)CCN(Cc3ccc(F)cc3)CC1)C2 (stereo not drawn) [IV-11, 2-fluoro-2-((4-fluoro-1-(4-fluorobenzyl)piperidin-4-yl)methyl)-5,6-dimethoxy-2,3-dihydro-1H-inden-1-one] | 7.55 | 100% | 28.2% | 100% | > 50 mg/kg | 3.1 h | 11.8 h | 7.9 h
COc1cc2c(cc1OC)C(=O)C(CC1(F)CCN(Cc3ccccc3)CC1)C2 (stereo not drawn) [IV-4, 2-((1-benzyl-4-fluoropiperidin-4-yl)methyl)-5,6-dimethoxy-2,3-dihydro-1H-inden-1-one] | 8.98 | – | – | – | 30 mg/kg | – | – | –
